Data reported in ChEMBL document CHEMBL3991601, “The target landscape of clinical kinase drugs” (Science, 2017).
The source made the active and inactive calls. Cut-off read from the data, not from the text of the source, for most assays here: actives have a measured Kd and inactives only a lower limit.

Columns and labels:
[1] = target: T1, Serine/threonine-protein kinase Chk1 (Homo sapiens, UniProt O14757)
T1 sequence (O14757 whole entry): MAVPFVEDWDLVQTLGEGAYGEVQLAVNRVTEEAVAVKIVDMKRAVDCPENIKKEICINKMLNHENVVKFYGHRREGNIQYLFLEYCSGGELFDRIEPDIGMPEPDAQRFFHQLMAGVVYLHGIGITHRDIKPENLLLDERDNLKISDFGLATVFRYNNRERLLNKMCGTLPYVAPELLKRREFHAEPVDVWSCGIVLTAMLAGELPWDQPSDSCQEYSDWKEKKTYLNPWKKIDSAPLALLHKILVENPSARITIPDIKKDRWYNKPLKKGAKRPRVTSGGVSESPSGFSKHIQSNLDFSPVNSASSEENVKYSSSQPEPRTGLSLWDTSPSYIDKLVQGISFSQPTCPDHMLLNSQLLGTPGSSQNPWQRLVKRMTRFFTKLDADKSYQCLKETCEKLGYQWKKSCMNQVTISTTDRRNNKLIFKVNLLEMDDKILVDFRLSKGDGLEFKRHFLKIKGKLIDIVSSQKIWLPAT

[2] = target: Calcium/calmodulin-dependent protein kinase type II subunit delta (Homo sapiens, UniProt Q13557)
[3] = target: Tyrosine-protein kinase Fer (Homo sapiens, UniProt P16591)
[4] = target: T2, MAP kinase-activated protein kinase 5 (Homo sapiens, UniProt Q8IW41)
T2 sequence (Q8IW41 whole entry): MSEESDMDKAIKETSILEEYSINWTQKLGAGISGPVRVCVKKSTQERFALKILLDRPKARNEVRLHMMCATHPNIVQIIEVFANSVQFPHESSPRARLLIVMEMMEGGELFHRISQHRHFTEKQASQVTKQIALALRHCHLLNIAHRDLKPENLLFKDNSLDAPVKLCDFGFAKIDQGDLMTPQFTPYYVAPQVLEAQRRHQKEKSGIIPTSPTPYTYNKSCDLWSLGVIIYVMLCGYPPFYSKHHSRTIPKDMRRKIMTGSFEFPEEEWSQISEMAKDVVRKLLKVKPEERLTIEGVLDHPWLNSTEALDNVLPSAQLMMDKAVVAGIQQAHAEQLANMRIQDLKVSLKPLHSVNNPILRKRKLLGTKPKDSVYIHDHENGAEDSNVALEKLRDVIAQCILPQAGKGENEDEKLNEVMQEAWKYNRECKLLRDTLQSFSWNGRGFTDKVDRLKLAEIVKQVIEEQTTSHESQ

[5] = target: Adenosine kinase (Homo sapiens, UniProt P55263)
[6] = target: Inosine-5'-monophosphate dehydrogenase 2 (Homo sapiens, UniProt P12268)
[7] = target: Calcium/calmodulin-dependent protein kinase type II subunit gamma (Homo sapiens, UniProt Q13555)
[8] = target: T3, Serine/threonine-protein kinase D3 (Homo sapiens, UniProt O94806)
T3 sequence (O94806 whole entry): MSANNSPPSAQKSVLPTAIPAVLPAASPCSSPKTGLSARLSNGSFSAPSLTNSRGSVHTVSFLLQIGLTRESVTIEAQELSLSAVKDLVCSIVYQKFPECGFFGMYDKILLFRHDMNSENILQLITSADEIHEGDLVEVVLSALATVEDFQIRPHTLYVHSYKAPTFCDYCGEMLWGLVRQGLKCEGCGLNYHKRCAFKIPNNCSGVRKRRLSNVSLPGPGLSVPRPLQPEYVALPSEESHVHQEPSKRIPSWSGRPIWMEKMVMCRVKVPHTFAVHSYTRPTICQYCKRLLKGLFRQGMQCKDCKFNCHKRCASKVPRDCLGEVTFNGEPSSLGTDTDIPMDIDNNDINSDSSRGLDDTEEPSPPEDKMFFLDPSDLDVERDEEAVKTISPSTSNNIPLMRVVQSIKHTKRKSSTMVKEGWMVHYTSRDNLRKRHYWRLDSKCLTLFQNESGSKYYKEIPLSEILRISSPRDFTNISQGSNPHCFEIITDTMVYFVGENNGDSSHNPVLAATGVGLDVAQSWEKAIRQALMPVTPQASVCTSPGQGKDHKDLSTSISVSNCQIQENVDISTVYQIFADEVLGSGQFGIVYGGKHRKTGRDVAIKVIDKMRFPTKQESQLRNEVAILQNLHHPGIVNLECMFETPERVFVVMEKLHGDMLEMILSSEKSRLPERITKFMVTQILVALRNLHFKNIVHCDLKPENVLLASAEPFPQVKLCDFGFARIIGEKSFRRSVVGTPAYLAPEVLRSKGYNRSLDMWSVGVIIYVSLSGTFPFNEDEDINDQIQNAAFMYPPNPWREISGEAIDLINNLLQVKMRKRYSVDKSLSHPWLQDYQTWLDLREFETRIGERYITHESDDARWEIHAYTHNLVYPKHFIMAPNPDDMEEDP

[9] = target: T4, Delta(24)-sterol reductase (Homo sapiens, UniProt Q15392)
T4 sequence (Q15392 whole entry): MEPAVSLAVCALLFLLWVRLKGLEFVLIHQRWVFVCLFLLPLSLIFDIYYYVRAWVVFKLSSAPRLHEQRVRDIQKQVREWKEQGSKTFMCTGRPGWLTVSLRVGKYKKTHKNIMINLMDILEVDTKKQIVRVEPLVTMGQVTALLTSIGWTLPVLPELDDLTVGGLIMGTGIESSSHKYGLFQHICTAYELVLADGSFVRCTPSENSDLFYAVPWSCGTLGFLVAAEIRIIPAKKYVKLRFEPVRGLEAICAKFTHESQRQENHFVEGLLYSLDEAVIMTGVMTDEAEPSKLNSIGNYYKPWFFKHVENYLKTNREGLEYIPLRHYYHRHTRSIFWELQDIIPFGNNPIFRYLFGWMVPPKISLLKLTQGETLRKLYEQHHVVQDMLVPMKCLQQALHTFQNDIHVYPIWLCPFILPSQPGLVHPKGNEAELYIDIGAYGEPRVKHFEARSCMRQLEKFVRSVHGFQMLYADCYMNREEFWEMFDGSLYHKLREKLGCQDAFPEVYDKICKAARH

[10] = target: Cyclin-dependent kinase 17 (Homo sapiens, UniProt Q00537)
Note: in the data inactive means no Kd found up to 30 µM.

Adenosine kinase, sequence (P55263 whole entry): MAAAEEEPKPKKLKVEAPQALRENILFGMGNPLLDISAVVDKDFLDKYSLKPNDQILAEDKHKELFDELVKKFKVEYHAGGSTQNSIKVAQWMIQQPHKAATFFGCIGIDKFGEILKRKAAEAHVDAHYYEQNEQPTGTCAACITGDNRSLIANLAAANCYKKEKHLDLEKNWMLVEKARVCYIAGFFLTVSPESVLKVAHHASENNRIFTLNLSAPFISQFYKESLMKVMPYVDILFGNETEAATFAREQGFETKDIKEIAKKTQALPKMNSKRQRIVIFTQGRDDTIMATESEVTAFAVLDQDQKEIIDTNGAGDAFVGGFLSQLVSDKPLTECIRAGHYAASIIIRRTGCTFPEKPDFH
Calcium/calmodulin-dependent protein kinase type II subunit delta, sequence (Q13557 whole entry): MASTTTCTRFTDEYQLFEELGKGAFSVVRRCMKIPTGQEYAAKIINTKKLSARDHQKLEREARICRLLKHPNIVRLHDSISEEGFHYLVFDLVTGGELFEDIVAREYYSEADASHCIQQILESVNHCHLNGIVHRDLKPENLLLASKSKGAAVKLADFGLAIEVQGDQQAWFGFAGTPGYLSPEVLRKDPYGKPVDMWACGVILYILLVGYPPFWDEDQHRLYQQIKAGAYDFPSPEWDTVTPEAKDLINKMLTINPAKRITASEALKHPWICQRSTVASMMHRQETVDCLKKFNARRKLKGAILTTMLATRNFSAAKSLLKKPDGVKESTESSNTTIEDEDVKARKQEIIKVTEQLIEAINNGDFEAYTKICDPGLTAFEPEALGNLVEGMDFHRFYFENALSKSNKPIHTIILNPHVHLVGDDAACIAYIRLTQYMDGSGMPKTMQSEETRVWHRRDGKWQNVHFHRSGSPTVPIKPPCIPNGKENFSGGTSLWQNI
Tyrosine-protein kinase Fer, sequence (P16591 whole entry): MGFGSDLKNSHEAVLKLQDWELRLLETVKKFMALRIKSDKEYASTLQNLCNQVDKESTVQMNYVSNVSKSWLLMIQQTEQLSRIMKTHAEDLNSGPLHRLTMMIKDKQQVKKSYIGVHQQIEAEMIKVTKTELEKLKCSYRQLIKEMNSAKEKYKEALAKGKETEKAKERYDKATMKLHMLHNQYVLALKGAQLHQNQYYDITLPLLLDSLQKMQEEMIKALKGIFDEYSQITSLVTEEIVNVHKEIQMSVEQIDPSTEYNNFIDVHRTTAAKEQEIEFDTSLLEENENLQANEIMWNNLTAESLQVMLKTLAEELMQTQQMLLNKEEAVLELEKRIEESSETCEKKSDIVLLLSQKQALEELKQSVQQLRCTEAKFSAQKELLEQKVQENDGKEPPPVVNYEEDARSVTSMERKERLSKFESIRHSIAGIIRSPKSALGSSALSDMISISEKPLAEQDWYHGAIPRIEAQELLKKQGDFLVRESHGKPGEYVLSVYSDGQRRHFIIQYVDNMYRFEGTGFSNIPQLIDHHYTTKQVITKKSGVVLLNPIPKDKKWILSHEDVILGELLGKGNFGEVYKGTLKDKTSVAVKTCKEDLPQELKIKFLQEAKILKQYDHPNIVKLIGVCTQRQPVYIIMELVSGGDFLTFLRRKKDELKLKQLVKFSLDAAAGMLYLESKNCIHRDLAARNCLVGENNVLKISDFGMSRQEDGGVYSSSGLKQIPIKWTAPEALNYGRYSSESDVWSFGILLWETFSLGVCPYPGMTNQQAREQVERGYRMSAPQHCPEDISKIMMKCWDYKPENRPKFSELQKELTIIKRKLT
Cyclin-dependent kinase 17, sequence (Q00537 whole entry): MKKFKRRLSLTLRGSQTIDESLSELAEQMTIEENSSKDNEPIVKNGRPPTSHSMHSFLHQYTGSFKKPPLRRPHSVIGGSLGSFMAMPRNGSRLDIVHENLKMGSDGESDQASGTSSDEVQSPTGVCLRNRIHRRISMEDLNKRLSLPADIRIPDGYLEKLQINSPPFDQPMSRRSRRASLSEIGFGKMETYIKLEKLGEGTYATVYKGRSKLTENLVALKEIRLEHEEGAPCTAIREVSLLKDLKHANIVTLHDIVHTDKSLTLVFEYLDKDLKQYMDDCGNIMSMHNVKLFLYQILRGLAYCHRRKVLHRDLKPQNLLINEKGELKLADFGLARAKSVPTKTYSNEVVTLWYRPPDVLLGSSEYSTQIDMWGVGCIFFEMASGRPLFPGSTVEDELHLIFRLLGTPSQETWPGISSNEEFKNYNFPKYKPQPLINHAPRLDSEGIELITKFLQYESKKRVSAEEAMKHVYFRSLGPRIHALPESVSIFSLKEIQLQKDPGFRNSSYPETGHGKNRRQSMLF
Calcium/calmodulin-dependent protein kinase type II subunit gamma, sequence (Q13555 whole entry): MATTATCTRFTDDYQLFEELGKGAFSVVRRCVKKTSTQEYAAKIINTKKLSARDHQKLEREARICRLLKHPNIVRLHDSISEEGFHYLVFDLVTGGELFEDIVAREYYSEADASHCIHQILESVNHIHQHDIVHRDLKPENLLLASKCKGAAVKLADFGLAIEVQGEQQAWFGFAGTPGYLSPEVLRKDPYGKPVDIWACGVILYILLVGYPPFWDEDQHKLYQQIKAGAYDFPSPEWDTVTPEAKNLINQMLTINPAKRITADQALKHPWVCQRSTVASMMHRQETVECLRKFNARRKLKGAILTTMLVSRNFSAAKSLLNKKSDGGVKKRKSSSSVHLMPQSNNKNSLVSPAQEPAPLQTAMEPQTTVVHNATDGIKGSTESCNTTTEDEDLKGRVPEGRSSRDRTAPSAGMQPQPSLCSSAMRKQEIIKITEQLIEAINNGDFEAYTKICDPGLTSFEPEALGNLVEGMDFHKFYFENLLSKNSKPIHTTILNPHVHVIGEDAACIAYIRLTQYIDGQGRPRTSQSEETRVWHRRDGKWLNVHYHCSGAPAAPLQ

| Kd [1] | Kd [2] | Kd [3] | Kd [4] | Kd [5] | Kd [6] | Kd [7] | Kd [8] | Kd [9] | Kd [10] | Compound |
| --- | --- | --- | --- | --- | --- | --- | --- | --- | --- | --- |
| > 30 µM (inactive) | > 30 µM (inactive) | > 30 µM (inactive) | > 30 µM (inactive) | > 30 µM (inactive) | > 30 µM (inactive) | > 30 µM (inactive) | > 30 µM (inactive) | > 30 µM (inactive) | > 30 µM (inactive) | CO[C@H]1C[C@@H]2CC[C@@H](C)[C@@](O)(O2)C(=O)C(=O)N2CCCC[C@H]2C(=O)O[C@H]([C@H](C)C[C@@H]2CC[C@@H](O)[C@H](OC)C2)CC(=O)[C@H](C)/C=C(\C)[C@@H](O)[C@@H](OC)C(=O)[C@H](C)C[C@H](C)/C=C/C=C/C=C/1C [SIROLIMUS] |
| > 30 µM (inactive) | > 30 µM (inactive) | > 30 µM (inactive) | > 30 µM (inactive) | > 30 µM (inactive) | > 30 µM (inactive) | > 30 µM (inactive) | > 30 µM (inactive) | > 30 µM (inactive) | > 30 µM (inactive) | O=C(Cc1ccc(-c2ccc(OCCN3CCOCC3)cc2)cn1)NCc1ccccc1 [TIRBANIBULIN] |
| > 30 µM (inactive) | > 30 µM (inactive) | > 30 µM (inactive) | > 30 µM (inactive) | > 30 µM (inactive) | > 30 µM (inactive) | > 30 µM (inactive) | > 30 µM (inactive) | > 30 µM (inactive) | > 30 µM (inactive) | O=C1NC(=O)[C@@H](c2cn3c4c(cccc24)CCC3)[C@@H]1c1c[nH]c2ccccc12 [TIVANTINIB] |

The remaining lines, values behind:

| Compound | Kd [1] | Kd [2] | Kd [3] | Kd [4] | Kd [5] | Kd [6] | Kd [7] | Kd [8] | Kd [9] | Kd [10] |
| --- | --- | --- | --- | --- | --- | --- | --- | --- | --- | --- |
| CO[C@H]1C[C@@H]2CC[C@@H](C)[C@@](O)(O2)C(=O)C(=O)N2CCCC[C@H]2C(=O)O[C@H]([C@H](C)C[C@@H]2CC[C@@H](OC(=O)C(C)(CO)CO)[C@H](OC)C2)CC(=O)[C@H](C)/C=C(\C)[C@@H](O)[C@@H](OC)C(=O)[C@H](C)C[C@H](C)/C=C/C=C/C=C/1C [TEMSIROLIMUS] | > 30 µM (inactive) | > 30 µM (inactive) | > 30 µM (inactive) | > 30 µM (inactive) | > 30 µM (inactive) | > 30 µM (inactive) | > 30 µM (inactive) | > 30 µM (inactive) | > 30 µM (inactive) | > 30 µM (inactive) |
| COc1cc2c(Nc3ccc(Cl)c(Cl)c3F)ncnc2cc1OC[C@@H]1C[C@@H]2CN(C)C[C@@H]2C1 [TESEVATINIB] | > 30 µM (inactive) | > 30 µM (inactive) | > 30 µM (inactive) | > 30 µM (inactive) | > 30 µM (inactive) | > 30 µM (inactive) | > 30 µM (inactive) | > 30 µM (inactive) | > 30 µM (inactive) | > 30 µM (inactive) |
| C[C@@H](NC(=O)c1ncnc(N)c1Cl)c1ncc(C(=O)Nc2cc(C(F)(F)F)c(Cl)cn2)s1 [TOVORAFENIB] | > 30 µM (inactive) | > 30 µM (inactive) | > 30 µM (inactive) | > 30 µM (inactive) | > 30 µM (inactive) | > 30 µM (inactive) | > 30 µM (inactive) | > 30 µM (inactive) | > 30 µM (inactive) | > 30 µM (inactive) |
| Cc1cc(Nc2ncnc3ccc(NC4=NC(C)(C)CO4)cc23)ccc1Oc1ccn2ncnc2c1 [TUCATINIB] | > 30 µM (inactive) | > 30 µM (inactive) | > 30 µM (inactive) | > 30 µM (inactive) | > 30 µM (inactive) | > 30 µM (inactive) | > 30 µM (inactive) | > 30 µM (inactive) | > 30 µM (inactive) | > 30 µM (inactive) |
| CN1C/C=C/CCOc2cccc(c2)-c2ccnc(n2)Nc2cccc(c2)C1 [ZOTIRACICLIB] | > 30 µM (inactive) | > 30 µM (inactive) | 1.69 µM | > 30 µM (inactive) | > 30 µM (inactive) | > 30 µM (inactive) | > 30 µM (inactive) | 0.557 µM (active) | > 30 µM (inactive) | > 30 µM (inactive) |
